Reference: patent US7786106B2, “Substituted benzene derivatives or salts thereof” (Astellas Pharma Inc., priority 2003, dated 2010)
Structures can show the parent of a compound that is named as a salt.

Key:
[1] = tested on: extrinsic coagulation time (PT); assay: Ex vivo measurement of coagulation time in cynomolgus monkeys (oral administration), extrinsic coagulation time (PT); details: for Test on Measurement of Coagulation Time in Cynomolgus Monkeys (PT): relative ratio of coagulation time to control, blood collection point with the most potent extension
Description: 4) Test on Ex Vivo Measurement of Coagulation Time in Cynomolgus Monkeys (Oral Administration)
A drug (5 mg/ml or 0.5 mg/ml) which was dissolved (suspended) in 0.5% methylcellulose was compulsorily administered per os at a dose of 2 ml/kg (10 mg/kg or 1 mg/kg) via an oral gavage after blood collection before the administration of the drug to a male cynomolgus monkeys (body weight around 4 kg) fasted for 12 hours or longer and, after 1, 2, 4, 6 and 8 hour(s), 2 ml of blood was collected from femoral vein using 1/10 volume of 3.8% sodium citrate and blood plasma was separated by means of centrifugal treatment of 3,000 rpm for 10 minutes. Using the resulting blood plasma, extrinsic coagulation time (PT) and intrinsic coagulation time (APTT) were measured in accordance with the following methods a) and b). The experiment was carried out under non-anesthetization.
a) Extrinsic Coagulation Time (PT)
Ortho Brain Thromboplastin (54 mg/vial; a freeze-dried preparation; Ortho-Clinical Diagnostics) was dissolved in 2.5 ml of Milli-Q water and preliminarily warmed at 37° C. The above-separated blood plasma (50 μl) was warmed at 37° C. for 1 minute, 50 μl of the above-mentioned thromboplastin solution was added and the coagulation time was measured. KC10 of Amelung was used for the measurement of the coagulation time.

human factor Xa = molecular target: T1, human factor Xa (Homo sapiens, UniProt P00742); assay: In vitro test on measurement of coagulation time by human activated blood coagulation factor X (human plasma); assay type: biochemical; details: for Test on Measurement of Coagulation Time by Human Activated Blood Coagulation Factor X (CT2): CT2 = concentration by which the coagulation time is prolonged 2-fold, human blood plasma; for anti-blood coagulation action (extension of coagulation time), in words: in vitro, human plasma
T1 construct: purchased Enzyme Research Labs
Description: 1) An In Vitro Test on Measurement of Coagulation Time by Human Activated Blood Coagulation Factor X
To 90 μl of human blood plasma were added 10 μl of a drug or a physiological saline and 50 μl of human factor Xa (Enzyme Research Labs), incubation was carried out at 30° C. for 3 minutes, 100 μl of 20 mM CaCl2 previously warmed at 37° C. were added and the time until coagulation was measured by a coagulo-meter (KC10 of Amelung). With regard to the human blood plasma, each 45 ml of blood were collected from vein of elbow of six healthy persons using a syringe in which 5 ml of 3.8% sodium citrate were contained and centrifuged at 4° C. for 15 minutes at 3,000 rpm and the separate blood plasma was pooled and frozen, then thawed before use. With regard to the human factor Xa, the concentration by which the coagulation time when a physiological saline solution (control) was added was about 30 to 40 seconds was selected. A CT2 value (concentration by which the coagulation time is prolonged to an extent of 2-fold) was determined by plotting the drug concentrations and relative value (fold) of the coagulation time to the control, followed by subjecting to linear regression.

T1 sequence (P00742 235-488 limits assumed): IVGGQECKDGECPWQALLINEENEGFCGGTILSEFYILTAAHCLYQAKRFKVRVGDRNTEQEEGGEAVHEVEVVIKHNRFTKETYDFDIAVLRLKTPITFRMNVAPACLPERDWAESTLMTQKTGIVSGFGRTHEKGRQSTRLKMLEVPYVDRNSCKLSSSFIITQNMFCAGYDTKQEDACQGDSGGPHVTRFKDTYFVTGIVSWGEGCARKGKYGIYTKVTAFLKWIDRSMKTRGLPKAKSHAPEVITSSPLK
T1 sequence (P00742 41-179 partner limits assumed): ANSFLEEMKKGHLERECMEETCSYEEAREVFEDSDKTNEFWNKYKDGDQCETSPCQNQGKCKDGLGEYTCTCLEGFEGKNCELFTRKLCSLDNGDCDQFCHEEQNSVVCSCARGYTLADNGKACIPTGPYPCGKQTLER

| Compound | Test on Measurement of Coagulation Time in Cynomolgus Monkeys (PT) ([1]; 1 mg/kg per os) | Test on Measurement of Coagulation Time in Cynomolgus Monkeys (PT) ([1]; 10 mg/kg per os) | Test on Measurement of Coagulation Time by Human Activated Blood Coagulation Factor X (CT2) (human factor Xa) [µM] | anti-blood coagulation action (extension of coagulation time), in words (human factor Xa) | extending action for the coagulation time compared with control (Example 44 of WO 00/39118) ([1]; same dose as control (10 mg/kg), oral, cynomolgus monkeys) |
| --- | --- | --- | --- | --- | --- |
| CC(C)N1CCC(C(=O)Nc2c(O)cc(Br)cc2C(=O)Nc2ccc(Cl)cn2)CC1 [Example 19, 4′-bromo-2′-[(5-chloro-2-pyridyl)carbamoyl]-6′-hydroxy-1-isopropylpiperidine-4-carboxanilide hydrochloride] | 2.26 |  |  |  |  |
| CC(C)N1CCC(C(=O)Nc2ccc(Cl)cc2C(=O)Nc2ccc(Cl)cn2)CC1 [Control Compound, reference compound] |  | 2.00 |  |  |  |
| CC(=O)N[C@H]1[C@H](Oc2cc(Br)cc(C(=O)Nc3ccc(Cl)cn3)c2NC(=O)C2CCN(C(C)C)CC2)O[C@H](CO)[C@@H](O)[C@@H]1O [Example 3, 2′-(2-acetamido-2-deoxy-β-D-glucopyranosyloxy)-4′-bromo-6′-[(5-chloro-2-pyridyl)-carbamoyl]-1-isopropylpiperidine-4-carboxanilide trifluoroacetate] |  | 5.60 |  |  |  |
| CC(C)N1CCC(C(=O)Nc2c(O[C@@H]3O[C@H](CO)[C@H](O)[C@H](O)[C@H]3O)cc(Br)cc2C(=O)Nc2ccc(Cl)cn2)CC1 [Example 1, trifluoroacetate] |  | 7.69 | 0.295 | extend the coagulation time at low concentration | longer extending action for the coagulation time |
| CC(C)N1CCC(CNc2c(O)cc(Cl)cc2C(=O)Nc2ccc(Cl)cn2)CC1 [Example 10] |  |  | 0.617 | extend the coagulation time at low concentration |  |
| COC[C@H]1O[C@@H](Oc2cc(Br)cc(C(=O)Nc3ccc(Cl)cn3)c2NC(=O)C2CCN(C(C)C)CC2)[C@H](O)[C@@H](O)[C@@H]1O [Example 8] |  |  | 0.137 | extend the coagulation time at low concentration |  |
| CC(C)N1CCC(C(=O)Nc2c(O)cc(Cl)cc2C(=O)Nc2ccc(Cl)cn2)CC1 [Example 18, 4′-chloro-2′-[(5-chloro-2-pyridyl)carbamoyl]-6′-hydroxy-1-isopropylpiperidine-4-carboxanilide hydrochloride] | 1.94 |  | 0.153 | extend the coagulation time at low concentration |  |
